The values that follow come from ChEMBL document CHEMBL1140694, “Identification of new functional inhibitors of acid sphingomyelinase using a structure-property-activity relation model” (J Med Chem, 2008).

The term pKa denotes the negative logarithm of the acid dissociation constant. Low readings indicate a group that gives up its proton readily, high ones a group that holds its proton tightly. A word on the logP: it is the decadic logarithm of the partition coefficient of the neutral form, usually between octanol and water.

Data set [1] is described as follows: Partition coefficient, log P of the compound. The settings on record: octanol/water. The data set is classed as physicochemical.

Description for physchem: Dissociation constant, pKa of the compound

As to `CN1CCC(OC(c2ccccc2)c2ccccc2)CC1`, in the data set “physchem”, the pKa was determined as 8.9.
On to `O=C1NCN(c2ccccc2)C12CCN(CCCC(c1ccc(F)cc1)c1ccc(F)cc1)CC2`, for which the logP in data set [1] (read-out: LogP) was 5.83. The compound also gave a pKa in the data set “physchem” of 8.66.
The corresponding values for `CN[C@H]1CC[C@@H](c2ccc(Cl)c(Cl)c2)c2ccccc21` (single isomer, unassigned) [SERTRALINE] are 4.3 and 9.16.
Take `c1ccc(CN(CC2=NCCN2)c2ccccc2)cc1` [ANTAZOLINE]: the lipophilicity (logP) in data set [1] (read-out: LogP) was 4.24. The pKa in “physchem” was 10.1.
The matching figures for `COc1ccc(CCN2CCC(Nc3nc4ccccc4n3Cc3ccc(F)cc3)CC2)cc1` [ASTEMIZOLE]: 5.48 and 8.5.
For the compound `Nc1ncn([C@@H]2O[C@H](CO)[C@@H](O)[C@H]2O)c(=O)n1` [AZACITIDINE], the logP in data set [1] (read-out: LogP) is -2.17.
Regarding `CN1[C@@H]2CC[C@H]1C[C@@H](OC(c1ccccc1)c1ccccc1)C2` [BENZTROPINE], the pKa in the data set “physchem” was 10.
Turning to `CN(Cc1cc(Br)cc(Br)c1N)C1CCCCC1` [BROMHEXINE], the pKa in the data set “physchem” was found to be 8.5.
On the same count and under the same terms, the same measure for `CCN(CC)CCNC(=O)c1cc(Br)c(N)cc1OC` [BROMOPRIDE]: 9.35.
For the compound `CN(C)CCCN1c2ccccc2Sc2ccc(Cl)cc21` [CHLORPROMAZINE], in data set [1] (read-out: LogP), the logP was determined as 5.19.
Regarding `CN(C)CC/C=C1/c2ccccc2Sc2ccc(Cl)cc21` [CHLORPROTHIXENE], the logP in data set [1] (read-out: LogP) was found to be 5.18. This compound also returned a pKa in the data set “physchem” of 8.84.
`C(=C\c1ccccc1)/CN1CCN(C(c2ccccc2)c2ccccc2)CC1` [CINNARIZINE] had a pKa in “physchem” of 7.47.
Still for that read-out and setting: the figure for `COc1cc(N)c(Cl)cc1C(=O)NC1CCN(CCCOc2ccc(F)cc2)CC1OC` (stereo not given) [CISAPRIDE] is 7.9.
On to `COc1cc(N)c(Cl)cc1C(=O)NC1CCN(Cc2ccccc2)CC1` [CLEBOPRIDE], for which the logP in data set [1] (read-out: LogP) is 2.72. The compound further showed a pKa in “physchem” of 8.59.
Regarding `CN1CCN(C2=Nc3cc(Cl)ccc3Nc3ccccc32)CC1` [CLOZAPINE], the logP in data set [1] (read-out: LogP) worked out at 3.42.
As to `C[C@H]1[C@H]2Cc3ccc(O)cc3[C@]1(C)CCN2CC1CC1` [CYCLAZOCINE], the logP in data set [1] worked out at 3.31. In addition, in the data set “physchem”, the pKa was 9.38.
In the case of `CN1CCC(=C2c3ccccc3C=Cc3ccccc32)CC1` [CYPROHEPTADINE], the pKa in “physchem” was 8.87.
For `CCCCOc1cc(C(=O)NCCN(CC)CC)c2ccccc2n1` [DIBUCAINE], in the data set “physchem”, the pKa was 8.85.
For the compound `O=c1[nH]c2ccccc2n1CCCN1CCC(n2c(=O)[nH]c3cc(Cl)ccc32)CC1` [DOMPERIDONE], the logP in data set [1] (read-out: LogP) turned out to be 4.05.
In the case of `CN(C)CC/C=C1\c2ccccc2COc2ccccc21` [DOXEPIN], in data set [1] (read-out: LogP), the logP was 4.01.
Take `CCOC(=O)c1cncn1[C@H](C)c1ccccc1` [ETOMIDATE]: the logP in data set [1] (read-out: LogP) turned out to be 3.05. Moreover, the pKa in “physchem” was 4.5.
The corresponding values for `CC(NCCC(c1ccccc1)c1ccccc1)c1ccccc1` (stereo not given) [FENDILINE] are 4.89 and 9.04.
The compound `Cc1c(-c2ccccc2)oc2c(C(=O)OCCN3CCCCC3)cccc2c1=O` [FLAVOXATE] came in with a pKa in the data set “physchem” of 7.3.
For `Fc1ccc(C(c2ccc(F)cc2)N2CCN(C/C=C/c3ccccc3)CC2)cc1` [FLUNARIZINE], in data set [1] (read-out: LogP), the logP was found to be 6.42. Also, in “physchem”, the pKa was 7.71.
On to `O=C(CCCN1CCC(O)(c2ccc(Cl)cc2)CC1)c1ccc(F)cc1` [HALOPERIDOL], for which the logP in data set [1] (read-out: LogP) came out at 3.23.
With `COc1ccc2c(c1)[nH]c1c(C)nccc12` [HARMINE], the pKa in “physchem” came out at 7.5.
As for `CN1CCC(=C2c3ccccc3CC(=O)c3sccc32)CC1` [KETOTIFEN], the logP in data set [1] (read-out: LogP) was found to be 3.56. In addition, in “physchem”, the pKa was 8.24.
As for `CNCCCC12CCC(c3ccccc31)c1ccccc12` [MAPROTILINE], in data set [1] (read-out: LogP), the logP came out at 4.5.
Regarding `CNC1(C)C2CCC(C2)C1(C)C` (stereo not given) [MECAMYLAMINE], the pKa in “physchem” was found to be 11.2.
Same read-out and setting: the same measure for `CC12CC3CC(C)(C1)CC(N)(C3)C2` [MEMANTINE]: 10.4.
For the compound `CC(CN(C)C)CN1c2ccccc2Sc2ccccc21` (stereo not given) [METHYLPROMAZINE], in data set [1] (read-out: LogP), the logP amounted to 4.81. For the same compound, in “physchem”, the pKa was determined as 9.11.
`COCC(=O)O[C@]1(CCN(C)CCCc2nc3ccccc3[nH]2)CCc2cc(F)ccc2[C@@H]1C(C)C` [MIBEFRADIL] displayed a logP in data set [1] of 3.86.
For the compound `COc1ccc2c(c1OC)C(=O)O[C@@H]2[C@H]1c2c(cc3c(c2OC)OCO3)CCN1C` [NOSCAPINE], the pKa in the data set “physchem” was determined as 6.2.
The compound `Cc1ccccc1C(OCCN(C)C)c1ccccc1` (stereo not given) [ORPHENADRINE] displayed a pKa in “physchem” of 8.4.
For `NCCc1cc(O)c(O)cc1O` [OXIDOPAMINE], in the data set “physchem”, the pKa was 10.3.
For `COc1ccc(Cc2nccc3cc(OC)c(OC)cc23)cc1OC` [PAPAVERINE], the lipophilicity (logP) in data set [1] (read-out: LogP) came to 2.93. Besides, the pKa in “physchem” turned out to be 6.25.
`N#Cc1ccc2c(c1)N(CCCN1CCC(O)CC1)c1ccccc1S2` [PERICIAZINE] registered a pKa in “physchem” of 8.76.
The same measure, in the same setting: the figure for `O=c1[nH]c2ccccc2n1C1CCN(CCCC(c2ccc(F)cc2)c2ccc(F)cc2)CC1` [PIMOZIDE] is 8.63; for `NC(=O)C1(N2CCCCC2)CCN(CCCC(=O)c2ccc(F)cc2)CC1` [PIPAMPERONE] it is 8.28; for `CN(C)CCCN1c2ccccc2Sc2ccccc21` [PROMAZINE] it is 9.34.
On the same count and under the same terms, the figure for `COc1ccc(CN(CCN(C)C)c2ccccn2)cc1` [PYRILAMINE] is 8.92.
Take `COC(=O)[C@H]1[C@H]2C[C@@H]3c4[nH]c5cc(OC)ccc5c4CCN3C[C@H]2C[C@@H](OC(=O)c2cc(OC)c(OC)c(OC)c2)[C@@H]1OC` [RESERPINE]: in data set [1] (read-out: LogP), the logP turned out to be 3.72. Moreover, the pKa in “physchem” was 6.6.
As for `Cc1nc2sccn2c(=O)c1CCN1CCC(=C(c2ccc(F)cc2)c2ccc(F)cc2)CC1` [RITANSERIN], the pKa in the data set “physchem” was found to be 8.2.
On to `CCN1CCCC1CNC(=O)c1cc(S(N)(=O)=O)ccc1OC` (stereo not given) [SULPIRIDE], for which the logP in data set [1] (read-out: LogP) worked out at 0.42.
In “physchem”, `CC(C)(C)c1ccc(C(O)CCCN2CCC(C(O)(c3ccccc3)c3ccccc3)CC2)cc1` (stereo not given) [TERFENADINE] displayed a pKa of 8.6.
As for `CCCCNc1ccc(C(=O)OCCN(C)C)cc1` [TETRACAINE], in data set [1] (read-out: LogP), the logP turned out to be 3.73. The pKa in “physchem” is 8.39.
Regarding `COc1cccc([C@@]2(O)CCCC[C@@H]2CN(C)C)c1` [TRAMADOL], the pKa in “physchem” came out at 9.37.
On the same count and under the same terms, the same measure for `O[C@@](CCN1CCCCC1)(c1ccccc1)C1CCCCC1` [TRIHEXYPHENIDYL]: 8.7.
In the case of `Cc1ccc(C(=CCN2CCCC2)c2ccccn2)cc1` [TRIPROLIDINE], the logP in data set [1] (read-out: LogP) came to 3.47. This compound returned a pKa in “physchem” of 9.69.
